Experimental data published in patent publication US7335654B2, “Phosphodiesterase 4 inhibitors” (Memory Pharmaceuticals Corporation, priority 2002, dated 2008).

What was measured:
[1] = tested on: rat (Male Spraque-Dawley (Harlan)); experiment: Passive avoidance in rats, in vivo test for learning and memory; details: retention test 24 hours after electric shock; MK-801 0.1 mg/kg pretreatment compared to the vehicle (p<0.001)
Experimental: The test was performed as previously described (Zhang, H.-T., Crissman, A. M., Dorairaj, N. R., Chandler, L. J., and O'Donnell, J. M., Neuropsychopharmacology, 2000, 23, 198-204.). The apparatus (Model E10-16SC, Coulbourn Instruments, Allentown, Pa.) consisted of a two-compartment chamber with an illuminated compartment connected to a darkened compartment by a guillotine door. The floor of the darkened compartment consisted of stainless steel rods through which an electric foot-shock could be delivered from a constant current source. All experimental groups were first habituated to the apparatus the day before the start of the experiment. During the training, the rat (Male Spraque-Dawley (Harlan) weighing 250 to 350 g) was placed in the illuminated compartment facing away from the closed guillotine door for 1 minute before the door was raised. The latency for entering the darkened compartment was recorded. After the rat entered the darkened compartment, the door was closed and a 0.5 mA electric shock was administered for 3 seconds. […] The latency for entering the darkened compartment was recorded for up to 180 seconds, at which time the trial was terminated.
(§1) All data were analyzed by analyses of variance (ANOVA); individual comparisons were made using Kewman-Keuls tests. […]

[2] = tested on: rats (male Spraque-Dawley (Harlan)); experiment: Radial arm maze task in rats, in vivo test for learning and memory; design: species or system rat; details: MK-801 0.1 mg/kg, i.p., compared to control (p<0.01)
Experimental: The test was performed as previously described (Zhang, H.-T., Crissman, A. M., Dorairaj, N. R., Chandler, L. J., and O'Donnell, J. M., Neuropsychopharmacology, 2000, 23, 198-204.). Five days after initial housing, rats (male Spraque-Dawley (Harlan) weighing 250 to 350 g) were placed in the eight-arm radial maze (each arm was 60×10×12 cm high; the maze was elevated 70 cm above the floor) for acclimation for two days. Rats were then placed individually in the center of the maze for 5 minutes with food pellets placed close to the food wells, and then, the next day, in the wells at the end of the arms; 2 sessions a day were conducted. Next, four randomly selected arms were then baited with one pellet of food each. The rat was restricted to the center platform (26 cm in diameter) for 15 seconds and then allowed to move freely throughout the maze until it collected all pellets of food or 10 minutes passed, whichever came first. Four parameters were recorded: 1) working memory errors, i.e., entries into baited arms that had already been visited during the same trial; 2) reference memory errors, i.e., entries into unbaited arms; 3) total arm entries; and 4) the test duration (seconds), i.e., the time spent in the collection of all the pellets in the maze. […]
as §1

For C[C@]12N[C@H](Cc3ccccc31)c1ccccc12 [MK-801], the “latency for entering the darkened compartment” value [1] was “markedly reduced”, the “frequency of reference memory errors” value [2] was “increased” and the “frequency of working memory errors” value [2] was “increased”.
